Measurements published in paper PMC7794397, “Curbing gastrointestinal infections by defensin fragment modifications without harming commensal microbiota” (Communications Biology, 2021).
Values after ≈ are worked out from the molar mass of the structure shown. Each block holds one compound with its values, some of them ahead of it. Positions of bridges follow the written chain, without caps; N, C: chain ends. Non-standard residues stand in square brackets, D forms with d. Residues, ends and D or L forms follow the SMILES beside them. *: point of attachment. Palmitoyl = CCCCCCCCCCCCCCCC(=O)*; X3 = CC[C@H](C)CCCCC(=O)*; Dab = NCC[C@H](N)C(=O)O

Columns and labels:
[1] = system: E. coli; assay: Antibiogram of ESKAPE pathogens; format: cell-based; conditions: column assigned by order in flattened table; for MIC: Escherichia coli
Description: (§1) Supplementary Table 1. Antibiogram of ESKAPE pathogens used in this study.
(§2) Bacteria susceptible to all (blue color) or intermediate/resistant to at least one (red color) of antibiotics per class following the EUCAST breakpoints. Black color is shown if the susceptibility to agents in that class is not assessed. Values are minimal inhibition concentrations (MIC) in µg/ml or for Chloramphenicol in diameter (mm). […]

[2] = system: A. baumannii; assay: Antibiogram of ESKAPE pathogens; format: cell-based; conditions: column assigned by order in flattened table
Description: as §1, §2

[3] = system: K. pneumoniae; conditions: one K. pneumoniae strain, which one not assignable
Description: as §1, §2

[4] = system: ESKAPE pathogens; assay: organism not typed; conditions: one strain of A. baumannii, P. aeruginosa or E. coli, not assignable
Description: as §1, §2

[5] = system: A. baumannii DSM30007 4-MRGN
Method: Bactericidal activity was assessed by broth microdilution assay. Log-phase bacteria were collected by centrifugation (2500 rpm, 10 min, 4 °C), washed twice with 10 mM sodium phosphate buffer containing 1% (w/v) TSB and the optical density at 600 nm was adjusted to 0.1. Approximately 5 × 10^5 CFU/ml bacteria were incubated with serial peptide concentrations (1.17–150 µM) in a final volume of 100 µl in 10 mM sodium phosphate buffer containing 1% (w/v) TSB for 2 h at 37 °C. After incubation, 100 µl of 6% TSB (w/v) were added and absorbance was measured at 600 nm (Tecan, Switzerland) and monitored for 18 h. Afterward, 100 µl per well were plated on LB agar to determine the numbers of viable bacteria microbiologically. Bactericidal activity is expressed as the LC99.9, the lowest concentration that killed ≥99.9 % of bacteria.

[6] = system: several pathogenic bacteria; assay: Radial diffusion assay, all tested strains; format: cell-based
Method: (§3) Antimicrobial activity was analyzed by radial diffusion assay. Log-phase bacteria were cultivated for up to 18 h in TSB (TSB, Becton Dickinson, USA), washed and diluted to 4 × 10^6 CFU in 10 ml agar. Bacteria were incubated in 10 ml of 10 mM sodium phosphate, pH 7.4, containing 0.3 mg/ml of TSB powder and 1% (w/v) low EEO-agarose (AppliChem). 1 µg of each lipopeptide was pipetted into punched wells in a final volume of 4 µl and diffused into the gel for 3 h at 37 °C. After that, a nutrient-rich gel with 6% TSB (w/v) and 1% agarose in 10 mM sodium phosphate buffer was poured on top of the first gel and incubated for up to 24 h at 37 °C. Then the diameter of inhibition zones was measured.

[7] = system: S. Typhimurium; format: cell-based; conditions: radial diffusion assay
Method: as §3

[8] = system: multidrug resistant bacteria belonging to the ESKAPE pathogen panel; format: cell-based; conditions: broth microdilution, ESKAPE panel
Method: Bactericidal activity was assessed by broth microdilution assay. […] After incubation, 100 µl of 6% TSB (w/v) were added and absorbance was measured at 600 nm (Tecan, Switzerland) and monitored for 18 h. Afterward, 100 µl per well were plated on LB agar to determine the numbers of viable bacteria microbiologically. Bactericidal activity is expressed as the LC99.9, the lowest concentration that killed ≥99.9 % of bacteria.

MIC (antibiogram) ([1]; strain DSM682): ≥ 64 µg/mL | MIC (antibiogram) ([1]; strain DSM8695): ≤ 1 µg/mL | MIC (antibiogram) ([2]; strain DSM30007): ≥ 64 µg/mL
Structure (SMILES): CC(C)(O/N=C(\C(=O)N[C@@H]1C(=O)N2C(C(=O)[O-])=C(C[n+]3ccccc3)CS[C@H]12)c1csc(N)n1)C(=O)O [Ceftazidim]

Structure (SMILES): CC[C@H](C)CCCCC(=O)N[C@@H](CCN)C(=O)N[C@H](C(=O)N[C@@H](CCN)C(=O)N[C@H]1CCNC(=O)[C@H]([C@@H](C)O)NC(=O)[C@H](CCN)NC(=O)[C@H](CCN)NC(=O)[C@H](CC(C)C)NC(=O)[C@@H](CC(C)C)NC(=O)[C@H](CCN)NC1=O)[C@@H](C)O [Colistin] (X3-[Dab]T[Dab][Dab][Dab][dL]L[Dab][Dab]T; lactam 4-C (inferred); N-terminus assumed)
MIC (antibiogram) [3]: 0.25 µg/mL (≈ 0.214 µM) | MIC (antibiogram) [4]: 1 µg/mL (≈ 0.855 µM)

Structure (SMILES): CCCCCCCCCCCCCCCC(=O)N[C@@H](CCCNC(=N)N)C(=O)NCC(=O)N[C@@H](CCCCN)C(=O)N[C@@H](C)C(=O)N[C@@H](CCCCN)C(=O)N[C@@H](CS)C(=O)N[C@@H](CS)C(=O)N[C@@H](CCCCN)C(=O)O [Pam-2] (Palmitoyl-RGKAKCCK-OH; C-terminus assumed)
growth inhibition of colistin- and tigecycline-resistant isolate (in words) [5]: inhibited the growth | antimicrobial activity (in words) [6]: potent inhibition | inhibition of S. Typhimurium growth (in words) [7]: consistently inhibited | bactericidal activity (in words) [8]: highly effective

MIC ([1]; strain DSM682): ≤ 0.5 µg/mL | MIC ([1]; strain DSM8695): ≤ 0.5 µg/mL | MIC ([2]; Acinetobacter baumannii, strain ECII): 4 µg/mL (≈ 6.83 µM)
Structure (SMILES): CN(C)c1cc(NC(=O)CNC(C)(C)C)c(O)c2c1C[C@H]1C[C@H]3[C@H](N(C)C)C(O)=C(C(N)=O)C(=O)[C@@]3(O)C(O)=C1C2=O [Tigecycline]
